Measurements reported in patent EP0846269B1, “A METHOD OF DETERMINING THE DEGREE OF AGGREGATION OF THE BETA A4 PEPTIDE” (Aventis Pharmaceuticals Inc., priority 1995, dated 1997).
Residues, ends and D or L forms follow the SMILES beside them.

Molecular target: β-amyloid (also known as βA4) peptide (Homo sapiens, UniProt P05067)
Experiment: Bradford dye (Coomassie Brilliant Blue G-250) assay of β-amyloid peptide aggregation, absorbance at 595 nm
Assay type: biochemical
Conditions: for inhibition at 500 µM: 500 µM compound; for inhibition at 1000 µM: 1 mM (or 1000 µM) compound
Description: β-amyloid (also known as βA4) peptide was dissolved in 100% dimethylsulfoxide (DMSO) at 10 mg/mL (or 2500 µM) concentration. The resultant solution was diluted to 1 mg/ml (or 250 µM) stock in Phosphate Buffered Saline (PBS), pH 7.4, just prior to setting up the assay and dispensed in individual sample wells of a Corning 96-well plate at 16µL per well (i.e. a final concentration of 25 µM). All treatments were done in triplicate.
In this example, the candidate compound was added to the test wells at three different concentrations (250µM, 500µM and 1mM). Total volume in each well was brought up to 160µL with PBS. For untreated control wells, no compound was added to the β-amyloid peptide, and the total volume was made to 160µL with PBS. The plates were sealed with parafilm and incubated at 37°C for 48 hours.
(§1) At the end of the incubation period, the plates were taken out and 25µL of Bio-Rad protein assay dye reagent (Bradford dye) was added to all the wells with samples. A standard curve was also set up at this time for estimation of fresh (also considered as unaggregared) peptide absorbance. The dye was mixed by pipeting and the plates quickly spun at 2500 rpm to remove bubbles.
The absorbance was read at 595 nm in a Dynatech MR5000 plate reader 15 minutes after adding the dye. The percent decrease in aggregation of β-amyloid due to the addition of candidate compound A41920t which is a 8-mer peptide of sequence Glutamine-Lysine-Leucine-Valine-Threonine-Threonine-Alanine-Glutamate ([…]) was calculated from the difference between untreated aggregated peptide and the treated aggregated peptide.
The procedure of Example 1 was repeated except that hydrogen peroxide (10µL of 30% stock) was added to the wells in a 96-well plate with 16µL of the 1 mg/mL β-amyloid stock. The final volume was then brought up to 160µL by adding 134µL of PBS to these wells. The plate was sealed and incubated at 37°C for 48 hours.
as §1, with “samples as in Example 1.” for “samples.”, “again used” for “also set up at this time”, “unaggregated)” for “unaggregared)”
The absorbance was read at 595nm in the Dynatech MR5000 plate reader 15 minutes after adding the dye. The amount of aggregation was estimated by subtracting background and taking the difference between the fresh and hydrogen peroxide treated β-amyloid readings. The difference was expressed as percent over fresh or unaggregated peptide.

[1] = 25 µM β-amyloid, PBS pH 7.4, 37°C, 48 hours, read-out: percent decrease in aggregation of β-amyloid

Chain of β-amyloid (also known as βA4) peptide (P05067 672-713 limits assumed): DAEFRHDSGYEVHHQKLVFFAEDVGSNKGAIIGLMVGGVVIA

Row | inhibition at 250 µM (250 µM compound, 25 µM β-amyloid, PBS pH 7.4, 37°C, 48 hours, read-out: percent decrease in aggregation of β-amyloid) [%] | inhibition at 500 µM [1] [%] | inhibition at 1000 µM [1] [%] | SMILES | percentage of aggregation (10µL of 30% stock in 160µL, 37°C, after 48 hrs, percent over fresh or unaggregated peptide) [%]
1 | 48.1 | 52.4 | 32.3 | CC(C)CC(NC(=O)C(CCCCN)NC(=O)C(N)CCC(N)=O)C(=O)NC(C(=O)NC(C(=O)NC(C(=O)NC(C)C(=O)NC(CCC(=O)O)C(=O)O)C(C)O)C(C)O)C(C)C (stereo not drawn) [A41920t, Glutamine-Lysine-Leucine-Valine-Threonine-Threonine-Alanine-Glutamate (QKLVTTAE)] (H-QKLVTTAE-OH; configuration not given here) | –
2 | – | 29.7 | 37.4 | CCCn1cnc2c1c(=O)n(CCCCC(C)=O)c(=O)n2C [propentofylline, 1-(5'-oxohexyl)-3-methyl-7-propyl-2,6-(1H,3H)-purinedione] | –
3 | – | – | – | OO [hydrogen peroxide] | 97.7
